Laboratory results from paper PMC3382171 (PLoS ONE, 2012).

Tests used:
Test in all cases: biochemical
Conditions in all cases: read-out: Upstate KSS % inhibition at 1uM
ALK = ALK (Homo sapiens, UniProt Q9UM73)
Protocol: (§1) In these selectivity assays the concentration of ATP was set to the Km value of ATP for each kinase tested to allow for a relative potency comparison between the various kinases. The compounds were tested at 1 µM final concentration. […] (A) Kinase selectivity screen (KSS) performed at Upstate Biotechnology. […] (B) KSS performed at University of Dundee (Division of Signal Transduction Therapy). […] (PDF) Click here for additional data file.

PKCdelta = biological target: T1, PKCdelta (Homo sapiens, UniProt Q05655)
T1 construct: gene PRKCD
Protocol: as §1

PKD2 = biological target: T2, PKD2 (Homo sapiens, UniProt Q9BZL6)
T2 construct: gene PRKD2
Protocol: as §1

ZIPK = biological target: T3, ZIPK (Homo sapiens, UniProt O43293)
T3 construct: gene DAPK3
Protocol: as §1

FAK = biological target: T4, FAK (Homo sapiens, UniProt Q05397)
T4 construct: gene PTK2
Protocol: as §1

TrkB = biological target: T5, TrkB (Homo sapiens, UniProt Q16620)
T5 construct: gene NTRK2
Protocol: as §1

Snk = biological target: T6, Snk (Homo sapiens, UniProt Q9NYY3)
T6 construct: gene PLK2
Protocol: as §1

PhKgamma = biological target: T7, PhKgamma (Homo sapiens, UniProt Q16816)
T7 construct: gene PHKG1
Protocol: as §1

CAMKIIbeta = biological target: T8, CAMKIIbeta (Homo sapiens, UniProt Q13554)
T8 construct: gene CAMK2B
Protocol: as §1

PAK2 = PAK2 (Homo sapiens, UniProt Q13177)
Protocol: as §1

TSSK2 = TSSK2 (Homo sapiens, UniProt Q96PF2)
Protocol: as §1

GSK3alpha = biological target: T9, GSK3alpha (Homo sapiens, UniProt P49840)
T9 construct: gene GSK3A
Protocol: as §1

CHK2 = biological target: T10, CHK2 (Homo sapiens, UniProt O96017)
T10 construct: gene CHEK2
Protocol: as §1

PRAK = biological target: T11, PRAK (Homo sapiens, UniProt Q8IW41)
T11 construct: gene MAPKAPK5
Protocol: as §1

PKCbeta = biological target: T12, PKCbeta (Homo sapiens, UniProt P05771)
T12 construct: gene PRKCB
Protocol: as §1

LIMK1 = LIMK1 (Homo sapiens, UniProt P53667)
Protocol: as §1

LKB1 = biological target: T13, LKB1 (Homo sapiens, UniProt Q15831)
T13 construct: gene STK11
Protocol: as §1

PDGFRalpha = biological target: T14, PDGFRalpha (Homo sapiens, UniProt P16234)
T14 construct: gene PDGFRA
Protocol: as §1

ROCK-11 = biological target: T15, ROCK-11 (Homo sapiens, UniProt O75116)
T15 construct: gene ROCK2
Protocol: as §1

IRAK4 = IRAK4 (Homo sapiens, UniProt Q9NWZ3)
Protocol: as §1

PDGFRbeta = biological target: T16, PDGFRbeta (Homo sapiens, UniProt P09619)
T16 construct: gene PDGFRB
Protocol: as §1

Yes = biological target: T17, Yes (Homo sapiens, UniProt P07947)
T17 construct: gene YES1
Protocol: as §1

TAK1 = biological target: T18, TAK1 (Homo sapiens, UniProt O43318)
T18 construct: gene MAP3K7
Protocol: as §1

MKK6 = biological target: T19, MKK6 (Homo sapiens, UniProt P52564)
T19 construct: gene MAP2K6
Protocol: as §1

FYN = FYN (Homo sapiens, UniProt P06241)
Protocol: as §1

PKCalpha = biological target: T20, PKCalpha (Homo sapiens, UniProt P17252)
T20 construct: gene PRKCA
Protocol: as §1

MKK7beta = biological target: T21, MKK7beta (Homo sapiens, UniProt O14733)
T21 construct: gene MAP2K7; isoform beta
Protocol: as §1

AXL = AXL (Homo sapiens, UniProt P30530)
Protocol: as §1

HIPK2 = HIPK2 (Homo sapiens, UniProt Q9H2X6)
Protocol: as §1

CDK3/cyclinE = CDK3/cyclinE (Homo sapiens, UniProt Q00526)
Protocol: as §1

BTK = BTK (Homo sapiens, UniProt Q06187)
Protocol: as §1

MEK1 = biological target: T22, MEK1 (Homo sapiens, UniProt Q02750)
T22 construct: gene MAP2K1
Protocol: as §1

RET = RET (Homo sapiens, UniProt P07949)
Protocol: as §1

SAPK3 = biological target: T23, SAPK3 (Homo sapiens, UniProt P53778)
T23 construct: gene MAPK12
Protocol: as §1

T15 sequence (O75116 whole entry): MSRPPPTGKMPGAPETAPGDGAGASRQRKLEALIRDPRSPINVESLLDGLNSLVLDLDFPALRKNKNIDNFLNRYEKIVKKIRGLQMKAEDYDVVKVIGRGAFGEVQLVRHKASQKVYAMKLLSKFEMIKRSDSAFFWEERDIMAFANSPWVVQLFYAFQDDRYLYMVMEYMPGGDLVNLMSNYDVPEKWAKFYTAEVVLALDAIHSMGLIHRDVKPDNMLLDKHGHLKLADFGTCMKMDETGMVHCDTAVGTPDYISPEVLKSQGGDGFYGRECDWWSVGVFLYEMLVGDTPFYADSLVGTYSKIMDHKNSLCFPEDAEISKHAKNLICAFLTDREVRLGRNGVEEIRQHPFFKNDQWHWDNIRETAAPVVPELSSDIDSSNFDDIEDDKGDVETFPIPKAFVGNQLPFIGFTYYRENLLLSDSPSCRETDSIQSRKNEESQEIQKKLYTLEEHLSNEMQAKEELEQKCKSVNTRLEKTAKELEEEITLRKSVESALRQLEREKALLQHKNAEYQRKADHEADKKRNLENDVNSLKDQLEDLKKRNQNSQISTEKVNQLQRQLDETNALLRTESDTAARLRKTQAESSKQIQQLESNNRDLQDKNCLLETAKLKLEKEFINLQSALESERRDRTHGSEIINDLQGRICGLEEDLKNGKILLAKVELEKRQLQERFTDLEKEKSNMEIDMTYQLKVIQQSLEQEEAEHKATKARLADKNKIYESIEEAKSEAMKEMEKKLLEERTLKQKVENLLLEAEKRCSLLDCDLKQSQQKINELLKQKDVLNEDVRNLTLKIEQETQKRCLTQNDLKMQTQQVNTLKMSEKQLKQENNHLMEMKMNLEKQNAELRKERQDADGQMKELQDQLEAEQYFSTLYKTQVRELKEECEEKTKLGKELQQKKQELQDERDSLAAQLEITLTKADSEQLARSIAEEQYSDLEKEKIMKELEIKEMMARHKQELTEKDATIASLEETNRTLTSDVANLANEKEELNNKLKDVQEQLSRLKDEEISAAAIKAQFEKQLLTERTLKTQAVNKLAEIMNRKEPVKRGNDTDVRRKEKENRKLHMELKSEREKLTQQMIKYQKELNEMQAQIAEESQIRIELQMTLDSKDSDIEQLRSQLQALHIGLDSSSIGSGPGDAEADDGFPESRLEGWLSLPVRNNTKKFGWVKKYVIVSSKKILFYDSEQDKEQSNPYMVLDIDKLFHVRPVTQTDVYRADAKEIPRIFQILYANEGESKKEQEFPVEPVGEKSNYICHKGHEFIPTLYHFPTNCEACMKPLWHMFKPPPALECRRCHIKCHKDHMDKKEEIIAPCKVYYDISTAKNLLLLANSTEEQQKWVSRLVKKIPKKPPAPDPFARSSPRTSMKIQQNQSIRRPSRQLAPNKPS
Sequence of FYN (P06241 whole entry): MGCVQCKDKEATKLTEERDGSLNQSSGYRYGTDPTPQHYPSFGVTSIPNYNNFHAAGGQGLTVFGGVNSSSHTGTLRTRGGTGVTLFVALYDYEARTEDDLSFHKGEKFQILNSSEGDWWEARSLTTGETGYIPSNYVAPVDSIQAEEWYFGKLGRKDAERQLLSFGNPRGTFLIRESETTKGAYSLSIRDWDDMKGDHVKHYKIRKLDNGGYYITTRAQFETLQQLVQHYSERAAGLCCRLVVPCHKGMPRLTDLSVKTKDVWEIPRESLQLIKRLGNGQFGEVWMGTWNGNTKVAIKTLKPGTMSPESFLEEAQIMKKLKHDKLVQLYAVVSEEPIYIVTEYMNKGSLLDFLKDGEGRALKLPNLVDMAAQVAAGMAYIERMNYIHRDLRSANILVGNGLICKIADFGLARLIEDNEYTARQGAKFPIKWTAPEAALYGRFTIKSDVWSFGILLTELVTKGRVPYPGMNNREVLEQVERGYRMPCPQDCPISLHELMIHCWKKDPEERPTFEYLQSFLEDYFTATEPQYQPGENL
T6 sequence (Q9NYY3 whole entry): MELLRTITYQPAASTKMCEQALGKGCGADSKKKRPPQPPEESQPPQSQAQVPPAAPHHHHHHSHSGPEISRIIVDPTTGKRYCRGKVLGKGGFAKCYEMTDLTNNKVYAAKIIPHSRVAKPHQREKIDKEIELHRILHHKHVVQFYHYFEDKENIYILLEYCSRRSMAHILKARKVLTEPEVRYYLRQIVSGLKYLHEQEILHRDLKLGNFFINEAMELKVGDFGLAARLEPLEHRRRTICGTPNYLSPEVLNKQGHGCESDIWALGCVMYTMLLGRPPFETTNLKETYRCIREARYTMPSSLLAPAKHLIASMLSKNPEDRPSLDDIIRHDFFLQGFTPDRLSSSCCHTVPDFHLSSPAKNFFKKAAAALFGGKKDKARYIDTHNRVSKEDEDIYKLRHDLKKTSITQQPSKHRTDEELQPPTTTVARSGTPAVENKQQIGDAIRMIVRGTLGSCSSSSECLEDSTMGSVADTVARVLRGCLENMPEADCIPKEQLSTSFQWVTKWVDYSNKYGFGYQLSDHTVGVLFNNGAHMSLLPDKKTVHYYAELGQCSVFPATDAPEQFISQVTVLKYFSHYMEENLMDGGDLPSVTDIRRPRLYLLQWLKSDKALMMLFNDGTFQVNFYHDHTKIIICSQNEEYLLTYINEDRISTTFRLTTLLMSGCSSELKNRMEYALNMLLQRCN
T12 sequence (P05771 whole entry): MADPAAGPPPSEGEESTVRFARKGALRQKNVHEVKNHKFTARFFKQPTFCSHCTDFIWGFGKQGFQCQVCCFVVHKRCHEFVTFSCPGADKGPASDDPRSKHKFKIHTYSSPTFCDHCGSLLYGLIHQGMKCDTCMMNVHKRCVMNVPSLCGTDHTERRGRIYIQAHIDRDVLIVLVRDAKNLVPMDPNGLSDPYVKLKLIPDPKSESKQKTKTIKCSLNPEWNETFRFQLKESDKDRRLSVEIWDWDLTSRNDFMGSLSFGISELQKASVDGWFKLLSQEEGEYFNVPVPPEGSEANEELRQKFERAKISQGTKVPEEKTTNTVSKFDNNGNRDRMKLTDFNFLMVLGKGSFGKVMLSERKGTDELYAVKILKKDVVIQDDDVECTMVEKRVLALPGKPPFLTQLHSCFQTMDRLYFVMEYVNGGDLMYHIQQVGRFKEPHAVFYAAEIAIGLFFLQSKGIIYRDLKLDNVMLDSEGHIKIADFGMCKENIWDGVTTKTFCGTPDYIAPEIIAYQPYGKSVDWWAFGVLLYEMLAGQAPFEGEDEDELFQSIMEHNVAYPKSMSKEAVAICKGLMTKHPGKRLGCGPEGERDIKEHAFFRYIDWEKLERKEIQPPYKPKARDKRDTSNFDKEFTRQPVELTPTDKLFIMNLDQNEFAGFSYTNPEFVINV
T16 sequence (P09619 whole entry): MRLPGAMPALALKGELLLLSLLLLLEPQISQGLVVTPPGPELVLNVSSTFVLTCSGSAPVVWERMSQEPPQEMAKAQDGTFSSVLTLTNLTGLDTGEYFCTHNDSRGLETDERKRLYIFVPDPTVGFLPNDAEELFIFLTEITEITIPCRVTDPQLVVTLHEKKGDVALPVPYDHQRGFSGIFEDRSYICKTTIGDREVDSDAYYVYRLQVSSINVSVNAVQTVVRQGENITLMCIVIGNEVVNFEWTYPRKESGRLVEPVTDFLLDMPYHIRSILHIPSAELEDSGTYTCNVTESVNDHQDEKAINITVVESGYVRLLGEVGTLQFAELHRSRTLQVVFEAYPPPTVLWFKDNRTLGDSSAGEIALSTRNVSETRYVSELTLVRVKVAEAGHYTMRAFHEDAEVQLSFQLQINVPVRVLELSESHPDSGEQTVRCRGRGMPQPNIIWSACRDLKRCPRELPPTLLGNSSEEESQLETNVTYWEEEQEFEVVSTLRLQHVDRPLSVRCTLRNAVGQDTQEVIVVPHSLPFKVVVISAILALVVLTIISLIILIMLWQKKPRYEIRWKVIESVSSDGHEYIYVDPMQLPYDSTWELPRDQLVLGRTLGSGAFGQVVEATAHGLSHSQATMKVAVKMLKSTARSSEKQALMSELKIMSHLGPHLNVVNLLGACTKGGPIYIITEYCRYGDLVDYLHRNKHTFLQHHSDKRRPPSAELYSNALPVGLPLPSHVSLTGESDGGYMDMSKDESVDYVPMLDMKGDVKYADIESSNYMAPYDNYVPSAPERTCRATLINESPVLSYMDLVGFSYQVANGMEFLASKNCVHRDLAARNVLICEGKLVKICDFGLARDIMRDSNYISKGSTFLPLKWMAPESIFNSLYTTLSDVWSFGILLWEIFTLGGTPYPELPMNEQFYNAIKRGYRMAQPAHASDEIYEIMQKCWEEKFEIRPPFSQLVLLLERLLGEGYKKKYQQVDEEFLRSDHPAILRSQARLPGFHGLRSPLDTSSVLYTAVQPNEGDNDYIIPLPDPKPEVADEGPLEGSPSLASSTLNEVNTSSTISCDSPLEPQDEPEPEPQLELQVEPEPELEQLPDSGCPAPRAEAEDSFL
Sequence of PAK2 (Q13177 whole entry): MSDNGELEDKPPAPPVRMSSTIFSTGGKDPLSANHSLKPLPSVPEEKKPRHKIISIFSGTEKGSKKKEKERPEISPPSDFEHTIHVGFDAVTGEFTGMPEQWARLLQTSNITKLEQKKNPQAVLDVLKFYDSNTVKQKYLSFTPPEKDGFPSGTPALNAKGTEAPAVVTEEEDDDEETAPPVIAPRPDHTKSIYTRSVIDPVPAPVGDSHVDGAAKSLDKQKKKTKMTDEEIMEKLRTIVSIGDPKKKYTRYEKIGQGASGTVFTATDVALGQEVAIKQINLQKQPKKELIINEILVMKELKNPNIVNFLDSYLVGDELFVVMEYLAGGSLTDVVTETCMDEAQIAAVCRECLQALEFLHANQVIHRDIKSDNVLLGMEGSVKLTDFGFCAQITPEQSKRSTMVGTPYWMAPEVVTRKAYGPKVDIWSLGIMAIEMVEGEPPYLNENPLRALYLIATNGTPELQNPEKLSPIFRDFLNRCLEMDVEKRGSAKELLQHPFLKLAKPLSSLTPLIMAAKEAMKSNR

OCCn1cc(-c2cnc3nnn(Cc4ccc5ncccc5c4)c3n2)cn1 [METi, PF-04217903]
inhibition at 1 µM (ALK): 54% | inhibition at 1 µM (PKCdelta): 10% | inhibition at 1 µM (PKD2): 5% | inhibition at 1 µM (ZIPK): 0% | inhibition at 1 µM (FAK): -9% | inhibition at 1 µM (TrkB): 10% | inhibition at 1 µM (Snk): -11% | inhibition at 1 µM (PhKgamma): -3% | inhibition at 1 µM (CAMKIIbeta): -6% | inhibition at 1 µM (PAK2): -9% | inhibition at 1 µM (TSSK2): 4% | inhibition at 1 µM (GSK3alpha): -7% | inhibition at 1 µM (CHK2): 0% | inhibition at 1 µM (PRAK): -2% | inhibition at 1 µM (PKCbeta): 0% | inhibition at 1 µM (LIMK1): -7% | inhibition at 1 µM (LKB1): -10% | inhibition at 1 µM (PDGFRalpha): -28% | inhibition at 1 µM (ROCK-11): 0% | inhibition at 1 µM (IRAK4): 11% | inhibition at 1 µM (PDGFRbeta): -27% | inhibition at 1 µM (Yes): 16% | inhibition at 1 µM (TAK1): -7% | inhibition at 1 µM (MKK6): -13% | inhibition at 1 µM (FYN): -20% | inhibition at 1 µM (PKCalpha): -7% | inhibition at 1 µM (MKK7beta): -2% | inhibition at 1 µM (AXL): -11% | inhibition at 1 µM (HIPK2): 8% | inhibition at 1 µM (CDK3/cyclinE): 5% | inhibition at 1 µM (BTK): -13% | inhibition at 1 µM (MEK1): -11% | inhibition at 1 µM (RET): -7% | inhibition at 1 µM (SAPK3): 10%
